Tests used:
[1] = system: endothelial tube formation in co-cultures of ECFCs and ADSCs treated with VEGF; test: cells; type: cell-based, human
DLD-1 = test: cells; type: cell-based
SW480 = test: cells; type: cell-based
[2] = system: ECFC/ADSC co-culture cell nuclei number
HCT116 = test: cells; type: cell-based
RKO = test: cells; type: cell-based
SNU-C1 = test: cells; type: cell-based
Colo320 = test: cells; type: cell-based
HT-29 = test: cells; type: cell-based
[3] = system: HCT116 cells treated with a GSK3β inhibitor; test: cells; type: cell-based
[4] = assay number 26, GSK3b inhibitor pretreated

Row | SMILES | VEGF_ADSC\ECFC Angio CD31 TubeArea IC50/EC50 [1] [µM] | Basal_Viability ATP DLD-1 IC50/EC50 (DLD-1; assay number 23, basal) [µM] | Basal_Viability ATP SW480 IC50/EC50 (SW480; assay number 24, basal) [µM] | VEGF_ADSC\ECFC Angio Hoechst NucArea IC50/EC50 [2] [µM] | Basal_Viability ATP HCT116 IC50/EC50 (HCT116; assay number 25, basal) [µM] | Basal_Viability ATP RKO IC50/EC50 (RKO; assay number 29, basal) [µM] | Basal_Viability ATP SNU-C1 IC50/EC50 (SNU-C1; assay number 30, basal) [µM] | Basal_Viability ATP Colo 320 IC50/EC50 (Colo320; assay number 27, basal) [µM] | Basal_Viability ATP HT-29 IC50/EC50 (HT-29; assay number 28, basal) [µM] | GSK3b inh pretreated_Viability ATP HCT116 IC50/EC50 [3, 4] [µM] | other results
1 | CC(=O)NC(=O)c1ccccc1O [NCGC00160362-02] |  |  |  |  |  |  |  |  |  |  | IC50 ([1]; read-out: VEGF_ADSC\ECFC Angio CD31 TubeArea summarized IC50): > 10 µM; IC50 (DLD-1; assay number 23, basal, read-out: Basal_Viability ATP DLD-1 summarized IC50): > 20 µM; IC50 (SW480; assay number 24, basal, read-out: Basal_Viability ATP SW480 summarized IC50): > 20 µM; IC50 ([2]; read-out: VEGF_ADSC\ECFC Angio Hoechst NucArea summarized IC50): > 10 µM; IC50 (HCT116; assay number 25, basal, read-out: Basal_Viability ATP HCT116 summarized IC50): > 20 µM; IC50 (RKO; assay number 29, basal, read-out: Basal_Viability ATP RKO summarized IC50): > 20 µM; IC50 (SNU-C1; assay number 30, basal, read-out: Basal_Viability ATP SNU-C1 summarized IC50): > 20 µM; IC50 (Colo320; assay number 27, basal, read-out: Basal_Viability ATP Colo 320 summarized IC50): > 20 µM; IC50 (HT-29; assay number 28, basal, read-out: Basal_Viability ATP HT-29 summarized IC50): > 20 µM; IC50 ([3]; assay number 26, GSK3b inhibitor pretreated, read-out: GSK3b inh pretreated_Viability ATP HCT116 summarized IC50): > 20 µM
2 | CCCCN1CCCC1C(=O)Nc1c(C)cc(C)cc1C (stereo not drawn) [NCGC00160363-03] | > 10 | > 20 | > 20 | > 10 | > 20 | > 20 | > 20 | > 20 | > 20 | > 20 | 
3 | O=C(Nc1ccc(Br)cc1)c1cc(Br)c(Br)s1 [NCGC00160448-02] | > 10 | 0.3353 | 0.1229 | > 10 | 0.5412 | 0.4312 | 1.0991 | 0.018 | 0.5199 | 0.3423 | 
4 | CCC1Nc2cc(Cl)c(S(N)(=O)=O)cc2S(=O)(=O)N1 (stereo not drawn) [NCGC00160540-03] | > 10 | > 20 | > 6.6667 | > 10 | > 20 | > 20 | > 20 | > 20 | > 20 | > 20 | 
5 | O=C1c2ccccc2C(=O)C1C(=O)C(c1ccccc1)c1ccccc1 [NCGC00160553-03] |  |  |  |  |  |  |  |  |  |  | IC50/EC50, VEGF_ADSC\ECFC Angio CD31 TubeArea (assay number 2) [1]: > 10 µM; IC50/EC50, Basal_Viability ATP DLD-1 (assay number 23) (DLD-1): 1.326 µM; IC50/EC50, Basal_Viability ATP SW480 (assay number 24) (SW480): 0.5361 µM; IC50/EC50, VEGF_ADSC\ECFC Angio Hoechst NucArea (assay number 3) [2]: > 10 µM; IC50/EC50, Basal_Viability ATP HCT116 (assay number 25) (HCT116): 0.5307 µM; IC50/EC50, Basal_Viability ATP RKO (assay number 29) (RKO): 1.5932 µM; IC50/EC50, Basal_Viability ATP SNU-C1 (assay number 30) (SNU-C1): 4.0068 µM; IC50/EC50, Basal_Viability ATP Colo 320 (assay number 27) (Colo320): 0.6211 µM; IC50/EC50, Basal_Viability ATP HT-29 (assay number 28) (HT-29): 4.4845 µM; IC50/EC50, GSK3b inh pretreated_Viability ATP HCT116 (assay number 26) [3]: 0.5674 µM
6 | CCCCCCOC(=O)c1cccnc1 [NCGC00160591-02] | > 10 |  |  | > 10 |  |  |  |  |  |  | Basal_Viability ATP DLD-1 IC50/EC50 (DLD-1; assay number 23, concentration response): > 20 µM; Basal_Viability ATP SW480 IC50/EC50 (SW480; assay number 24, concentration response): > 20 µM; Basal_Viability ATP HCT116 IC50/EC50 (HCT116; assay number 25, basal, concentration response): > 20 µM; Basal_Viability ATP RKO IC50/EC50 (RKO; assay number 29, concentration response): > 20 µM; Basal_Viability ATP SNU-C1 IC50/EC50 (SNU-C1; assay number 30, concentration response): > 20 µM; Basal_Viability ATP Colo 320 IC50/EC50 (Colo320; assay number 27, concentration response): > 20 µM; Basal_Viability ATP HT-29 IC50/EC50 (HT-29; assay number 28, concentration response): > 20 µM; GSK3b inh pretreated_Viability ATP HCT116 IC50/EC50 ([3]; assay number 26, GSK3b inhibitor pretreated, concentration response): > 20 µM
